The source of these data is ChEMBL document CHEMBL3271943, “P-Aminobenzoic acid derivatives. Mode of action and structure-activity relationships in a cell-free system (Escherichia coli)” (J Med Chem, 1977).

The source made the active and inactive calls. The rule behind the calls is not given here.

For data set [1] the following is noted: buffer.
Description: Solubility of the compound in water
Data set [2] has as its system Escherichia coli. As to the kind of experiment: microbe, parasite or virus in culture. Conditions: 24 h, read-out: ID50.
Description: Antimicrobial activity against Escherichia coli assessed as growth inhibition after 24 hrs by turbidimetric analysis
For data set [3] the following is noted: octanol/water.
Description: Lipophilic-hydrophilic balance, Rm of the compound by TLC analysis
Data set [4] can be described thus: physchem.
Description: Dissociation constant, pKa of the compound by spectrophotometric analysis
Data set [5] deals with Enterococcus faecalis. As to the kind of experiment: Induction of Streptococcus faecalis growth. It counts as functional, organism-based.
In the next data set the target is Albumin (Homo sapiens, UniProt P02768). As to the kind of experiment: Binding affinity to human serum albumin at 100 umol/l by equilibrium dialysis technique. It counts as ADME. Conditions: isolated protein, 100 µM. In general terms: In equilibrium dialysis only unbound substance equilibrates across the membrane.
Chain of Albumin (P02768 whole entry): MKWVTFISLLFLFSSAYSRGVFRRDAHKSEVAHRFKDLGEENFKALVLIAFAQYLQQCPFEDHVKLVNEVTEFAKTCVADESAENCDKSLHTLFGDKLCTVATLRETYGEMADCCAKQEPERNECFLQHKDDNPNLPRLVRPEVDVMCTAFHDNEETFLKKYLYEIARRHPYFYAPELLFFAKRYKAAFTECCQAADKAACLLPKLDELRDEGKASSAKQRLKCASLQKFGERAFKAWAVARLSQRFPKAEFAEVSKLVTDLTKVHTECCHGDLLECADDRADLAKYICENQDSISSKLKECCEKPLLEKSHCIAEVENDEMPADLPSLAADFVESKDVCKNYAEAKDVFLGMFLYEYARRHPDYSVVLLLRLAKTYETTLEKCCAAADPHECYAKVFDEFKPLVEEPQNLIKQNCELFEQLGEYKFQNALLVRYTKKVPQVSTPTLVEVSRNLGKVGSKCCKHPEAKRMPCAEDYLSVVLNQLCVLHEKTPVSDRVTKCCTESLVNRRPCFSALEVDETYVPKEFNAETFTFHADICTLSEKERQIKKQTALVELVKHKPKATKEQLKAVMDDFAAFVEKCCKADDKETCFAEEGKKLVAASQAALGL
For data set [6], the system named is Escherichia coli. As to the kind of experiment: Inhibition of Escherichia coli dihydropteroic acid synthesizing system-mediated folate production at 50 to 250 umol/l.
The nature of data set [7]: physchem. Conditions: aqueous solution.
Description: Hydrolytic dissociation constant, pKa of the compound in aqueous solution at 50 degC
For data set [8], the system named is Enterococcus faecalis. As to the kind of experiment: Growth inhibition of Streptococcus faecalis. The format is functional, organism-based.
Data set [9] concerns Escherichia coli. As to the kind of experiment: Reversal of sulfabenzene-mediated growth inhibition of Escherichia coli at 4 to 400 umol/l. It counts as functional, organism-based.
In data set [10] the test system is Escherichia coli. As to the kind of experiment: Reversal of sulfapyridine-mediated growth inhibition of Escherichia coli at 4 to 400 umol/l. The format is functional, organism-based.

In the case of `CCCCCCCCOc1cc(N)ccc1C(=O)O`, the solubility result in data set [1] is reported as “soluble”. In addition, in the data set with Escherichia coli [2], the IC50 amounted to 25 µM. In addition, the Rm in data set [3] is recorded as 4.25. Also, in “physchem [4]”, the pKa was 5.4.
For `Nc1nc(=O)c2nc(CNc3ccc(C(=O)O)c(F)c3)cnc2[nH]1`, the outcome in the data set on Enterococcus faecalis [5] was Active.
As for `Nc1ccc(C(=O)O)cc1C(=O)c1ccccc1`, the solubility entry in [1] is “soluble”. Further, in the data set with Escherichia coli [2], the IC50 turned out to be 105 µM. This compound also came in with a pKa in “physchem [4]” of 4.34.
For the compound `Nc1ccc(C(=O)O)c(Cl)c1`, at Albumin, the “log(PB)” value worked out at 1.36. The IC50 with Escherichia coli [2] was found to be 45 µM. In [3], this compound had a Rm of 2.17. The inhibition result with Escherichia coli [6] is “inactive”. For the same compound, the pKa in “physchem [7]” worked out at 3.93; in “physchem [4]”, 3.88.
For `CCCCCCOc1cc(C(=O)O)ccc1N`, at Albumin, the “log(PB)” value came out at 1.97. Further, in data set [1], the solubility entry was “soluble”. Further, the IC50 in the data set on Escherichia coli [2] came to 85 µM. Further, the inhibition result in the data set with Escherichia coli [6] was “inactive”. The pKa in the data set “physchem [4]” turned out to be 4.47.
As to `Nc1ccc(C(=O)O)cc1C(=O)O`, at Albumin, the “log(PB)” value is on record as 1.82. Besides, the IC50 with Escherichia coli [2] is 120 µM.
On to `Nc1ccc(C(=O)O)c(C(=O)O)c1`, for which the “log(PB)” value on Albumin was 0.45. Besides, in the data set with Escherichia coli [2], the IC50 is 120 µM.
For the compound `Nc1nc(=O)c2nc(CNc3ccc(C(=O)N[C@@H](CCC(=O)O)C(=O)O)cc3)cnc2[nH]1`, the outcome with Enterococcus faecalis [5] was Active.
Consider `Cl.Nc1ccc(C(=O)O)c(N)c1`, for which the “log(PB)” value at Albumin is 1. Further, the IC50 in the data set on Escherichia coli [2] came to 3.5 µM. In “physchem [4]”, this compound came in with a pKa of 5.81.
In the case of `Nc1nc(O)c2nc(CNc3ccc(C(=O)O)cc3)cnc2n1`, the outcome with Enterococcus faecalis [5] was Active.
Regarding `Nc1ccc(C(=O)O)c(F)c1`, the “log(PB)” value at Albumin is 1.27. For the same compound, the IC50 in the data set with Escherichia coli [2] was determined as 125 µM. In data set [3], this compound displayed a Rm of 1.62. In the data set “physchem [4]”, this compound gave a pKa of 4.13.
Take `Nc1nc(=O)c2nc(CNc3ccc(C(=O)O)c(Cl)c3)cnc2[nH]1`: the “growth inhibition (GI)” value with Enterococcus faecalis [8] is “inactive”. The result in the data set on Enterococcus faecalis [5] was inactive.
For `CC(C)CCOc1cc(N)ccc1C(=O)O`, the solubility result in [1] is listed as “soluble”. Further, in the data set with Escherichia coli [2], the IC50 amounted to 125 µM. Also, in data set [3], the Rm is listed as 2.7. The same compound gave a pKa in the data set “physchem [4]” of 5.17.
As to `CCCOc1cc(N)ccc1C(=O)O`, on Albumin, the “log(PB)” value came out at 1.69. Further, the solubility result in data set [1] is “soluble”. Moreover, the IC50 in the data set with Escherichia coli [2] worked out at 140 µM. The Rm in [3] came out at 1.75. Also, the pKa in the data set “physchem [4]” was determined as 4.96.
Take `Nc1ccc(C(=O)O)c(O)c1` [AMINOSALICYLIC ACID]: at Albumin, the “log(PB)” value was found to be 1.57. The IC50 with Escherichia coli [2] was determined as 25 µM. Further, the Rm in [3] amounted to 1.92. Further, in the data set on Escherichia coli [6], the inhibition result was “inactive”. In addition, the pKa in “physchem [7]” worked out at 3.62; in the data set “physchem [4]”, 3.52.
With `Cl.Nc1ccc(C(=O)O)c(Br)c1`, at Albumin, the “log(PB)” value was found to be 1.67. In addition, in the data set on Escherichia coli [2], the IC50 amounted to 8 µM. Besides, in data set [3], the Rm was 2.38. Moreover, the figures for the pKa in the data set “physchem [7]” and in the data set “physchem [4]” were 3.85 and 3.69, respectively.
As to `Cc1cc(N)ccc1C(=O)O`, the “log(PB)” value on Albumin is recorded as 1.16. Also, the IC50 with Escherichia coli [2] stood at 30 µM. In data set [3], the Rm is reported as 1.73. This compound had a pKa in the data set “physchem [4]” of 4.83.
Take `CCOc1cc(N)ccc1C(=O)O`: the “log(PB)” value on Albumin came to 1.56. The solubility result in [1] is listed as “soluble”. Further, the IC50 in the data set with Escherichia coli [2] was determined as 130 µM. In addition, the Rm in [3] came to 1.31. Also, the pKa in the data set “physchem [4]” worked out at 5.09.
For `Nc1nc2c(c(=O)[nH]1)N=C(CNc1ccc(C(=O)O)cc1)CN2`, the outcome in the data set with Escherichia coli [9] and with Escherichia coli [10] was Active.
For `Cl.Nc1ccc(C(=O)O)c(I)c1`, the “log(PB)” value on Albumin is reported as 1.79. For the same compound, the IC50 in the data set with Escherichia coli [2] came to 30 µM. In addition, in data set [3], the Rm is on record as 2.4. This compound also displayed a pKa in “physchem [4]” of 3.81.
As to `Nc1ccc(C(=O)O)c([N+](=O)[O-])c1`, the “log(PB)” value on Albumin came out at 1.33. Also, the IC50 with Escherichia coli [2] was determined as 100 µM. In addition, the Rm in [3] came to 2.3. Besides, the values for the pKa in “physchem [7]” and in the data set “physchem [4]” were 3.22 and 2.78, respectively.
As for `Nc1nc(O)c2c(n1)NCC(CNc1ccc(C(=O)O)c(Cl)c1)=N2`, the outcome in the data set on Escherichia coli [9] and with Escherichia coli [10] was Active.
Consider `Nc1ccc(C(=O)O)cc1[N+](=O)[O-]`, for which the “log(PB)” value on Albumin was 1.89. In addition, the solubility result in data set [1] is given as “soluble”. Also, in the data set on Escherichia coli [2], the IC50 was 130 µM. Moreover, the Rm in data set [3] worked out at 3.11. Moreover, in “physchem [4]”, the pKa worked out at 3.96.
As for `COc1cc(N)ccc1C(=O)O`, at Albumin, the “log(PB)” value is listed as 1.26. Besides, the IC50 in the data set with Escherichia coli [2] worked out at 100 µM. Also, the pKa in the data set “physchem [7]” worked out at 5.1; in the data set “physchem [4]”, 5.04.
For the compound `Nc1ccc(C(=O)O)cc1` [AMINOBENZOIC ACID], the Rm in data set [3] is listed as 1.21. In “physchem [7]”, this compound had a pKa of 4.67.
In the case of `Nc1ccc(C(=O)O)cc1O`, the “log(PB)” value at Albumin is reported as 1.27. For the same compound, the IC50 in the data set with Escherichia coli [2] is 85 µM. The compound further showed a pKa in “physchem [4]” of 4.59.
Take `Nc1nc(O)c2c(n1)NCC(CNc1ccc(C(=O)O)cc1F)=N2`: the outcome in the data set on Escherichia coli [9] and in the data set with Escherichia coli [10] was Active.
Turning to `Cl.Nc1ccc(C(=O)O)cc1N`, at Albumin, the “log(PB)” value stood at 0.95. Besides, the IC50 with Escherichia coli [2] is 40 µM. The pKa in “physchem [4]” came to 4.84.
For the compound `CCCCOc1cc(N)ccc1C(=O)O`, on Albumin, the “log(PB)” value is given as 1.69. Besides, the solubility result in [1] is on record as “soluble”. Moreover, the IC50 in the data set with Escherichia coli [2] came out at 125 µM. This compound had a Rm in data set [3] of 2.4. The compound also returned a pKa in the data set “physchem [4]” of 5.25.
For `C=CCOc1cc(N)ccc1C(=O)O`, in that order: 1.63, “soluble”, 125 µM, 1.68 and 5.01.
On to `Nc1ccc(C(=O)O)cc1F`, for which the “log(PB)” value on Albumin amounted to 1.52. Also, the IC50 in the data set on Escherichia coli [2] was found to be 13 µM. The Rm in data set [3] is listed as 1.66. In the data set with Escherichia coli [6], the inhibition result is “Active”. This compound also registered a pKa in the data set “physchem [4]” of 4.35.
Take `Nc1ccc(C(=O)O)cc1I`: the “log(PB)” value at Albumin came out at 1.92. In addition, in the data set on Escherichia coli [2], the IC50 was found to be 110 µM. The compound further had a Rm in [3] of 2.95. Besides, the pKa in the data set “physchem [4]” amounted to 4.34.
Turning to `Nc1ccc(C(=O)O)cc1Cl`, the “log(PB)” value at Albumin is 1.81. Besides, the IC50 in the data set with Escherichia coli [2] worked out at 100 µM. Further, the Rm in data set [3] is on record as 2.38. Besides, the pKa in “physchem [4]” came to 4.35.
For `Cc1cc(C(=O)O)ccc1N`, the “log(PB)” value on Albumin was 1.37. Also, the IC50 with Escherichia coli [2] came out at 120 µM. Further, in data set [3], the Rm is given as 1.6. This compound returned a pKa in the data set “physchem [4]” of 4.62.
`CCCCCOc1cc(N)ccc1C(=O)O`: at Albumin, the “log(PB)” value is given as 1.76. The solubility entry in [1] is on record as “soluble”. The IC50 in the data set with Escherichia coli [2] came out at 135 µM. In addition, in [3], the Rm amounted to 2.85. Besides, the pKa in the data set “physchem [4]” was determined as 5.1.
Regarding `CCCCCCCOc1cc(N)ccc1C(=O)O`, the solubility result in data set [1] is reported as “soluble”. In addition, the IC50 with Escherichia coli [2] turned out to be 90 µM. This compound showed a Rm in [3] of 3.77. In the data set “physchem [4]”, this compound had a pKa of 5.3.
For the compound `N#CSc1cc(C(=O)O)ccc1N`, on Albumin, the “log(PB)” value amounted to 1.68. Besides, the IC50 in the data set on Escherichia coli [2] turned out to be 190 µM. Further, the pKa in “physchem [4]” was determined as 4.52.
As to `Nc1ccc(C(=O)O)cc1Br`, on Albumin, the “log(PB)” value stood at 1.89. Besides, the IC50 with Escherichia coli [2] turned out to be 110 µM. The compound further registered a Rm in [3] of 2.85. For the same compound, the pKa in the data set “physchem [7]” worked out at 4.31; in “physchem [4]” it was 4.24.

For orientation: pKa means the pH at which an ionisable group is half protonated.
